Where two headings read alike, the source gives them in different places.
Experiments:
[1] = test system: human stomach cancer cell line SNU-16 (FGFR2 gene amplification); experiment: SNU-16 growth inhibition assay; format: cell-based; details: Homo sapiens, SNU-16, 72 h
Protocol: In this assay, the growth inhibitory activity of a test substance in a human stomach cancer cell line harboring FGFR2 gene amplification is measured.
Then, 10 μL of Cell Counting Kit-8 (Dojindo Laboratories, CK04) was added to each well, and the resultant was incubated for 1 to 2 hours in a 5% CO2 incubator (37° C.) to cause a color reaction. The absorbance value was measured with ENVISION™ (PerkinElmer Co., Ltd.) at 450 nm.

[2] = test system: normal human umbilical vein endothelial cells (HUVEC); experiment: HUVEC growth inhibition assay (VEGF-induced); format: cell-based; details: Homo sapiens, HUVEC, 72 h, read-out: HUVEC (IC50 (nM)), growth in the presence of VEGF 10 ng/mL, 3 days
Protocol: The absorbance value was measured with ENVISION™ (PerkinElmer Co., Ltd.) at 450 nm. The absorbance values of the wells without adding the test substance but with VEGF addition was defined as 100% and the absorbance values of the wells with neither the test substance nor VEGF addition was defined as 0%.

[3] = read-out: SNU-16 (IC50 (nM)), cell growth, 3 days, Cell Counting Kit-8

Structure (SMILES)	IC50 ([1]; read-out: SNU-16 (IC50 (nM))) [nM]	IC50 [1, 3] [nM]	IC50 [2] [nM]
CCOc1cc2c(ccn2C(=O)NC)cc1Oc1ccnc(NC(=O)c2ccc(C3CCN(C(C)C)CC3)cc2)c1 [Example 59]	–	14.5	253
CNC(=O)n1ccc2cc(Oc3ccnc(NC(=O)c4ccc(CN5CCC[C@@H]5CO)s4)c3)c(OC)cc21 [Example 34]	–	14	195
CNC(=O)n1ccc2cc(Oc3ccnc(NC(=O)c4ccc(C5CCN(C[C@@H](C)O)CC5)cc4)c3)c(OC(C)C)cc21 [Example 18, (R)-5-((2-(4-(1-(2-Hydroxypropyl)piperidin-4-yl)benzamide)pyridin-4-yl)oxy)-6-isopropoxy-N-methyl-1H-indole-1-carboxamide]	–	13.9	180
CCOCCOc1cc2c(ccn2C(=O)NC)cc1Oc1ccnc(NC(=O)c2ccc(CN3CCC[C@@H]3CO)cc2)c1 [Example 104]	–	13.7	600
CCN1CCC(c2ccc(C(=O)Nc3cc(Oc4cc5ccn(C(=O)NC)c5cc4OCCOC)ccn3)cn2)CC1 [Example 78]	–	6.2	835
CNC(=O)n1ccc2cc(Oc3ccnc(NC(=O)c4ccc(CN5CC[C@@H](O)C5)cc4)c3)c(OCCCOC)cc21 [Example 121]	–	14.9	518
CNC(=O)n1ccc2cc(Oc3ccnc(NC(=O)c4ccc(C5CCN(C[C@@H](C)O)CC5)cc4)c3)c(OCCCOC)cc21 [Example 125]	–	7.2	203
CCOCCOc1cc2c(ccn2C(=O)NC)cc1Oc1ccnc(NC(=O)c2ccc(C3CCN(C[C@@H](C)O)CC3)cc2)c1 [Example 111]	–	5.1	195
CNC(=O)n1ccc2cc(Oc3ccnc(NC(=O)c4ccc(C5CN(C(C)C)C5)cc4)c3)c(OC)cc21 [Example 47]	–	13.1	174
CCN1CCN(CCc2ccc(C(=O)Nc3cc(Oc4cc5ccn(C(=O)NC)c5cc4OC)ccn3)cc2)CC1 [Example 11, 5-((2-(4-(2-(4-Ethylpiperazin-1-yl)ethyl)benzamide)pyridin-4-yl)oxy)-6-methoxy-N-methyl-1H-indole-1-carboxamide]	–	14.5	132
CCOCCOc1cc2c(ccn2C(=O)NC)cc1Oc1ccnc(NC(=O)c2ccc(CN3CCC(O)CC3)cc2)c1 [Example 115]	–	11.4	616
CNC(=O)n1ccc2cc(Oc3ccnc(NC(=O)c4ccc(OCCN5CCC(O)CC5)cc4)c3)c(OC)cc21 [Example 12, 5-((2-(4-(2-(4-Hydroxypiperidin-1-yl)ethoxy)benzamide)pyridin-4-yl)oxy)-6-methoxy-N-methyl-1H-indole-1-carboxamide]	–	13	141
CNC(=O)n1ccc2cc(Oc3ccnc(NC(=O)c4ccc(CN5CCC[C@@H]5CO)cc4)c3)c(OCCCOC)cc21 [Example 116]	–	–	520
CCOCCOc1cc2c(ccn2C(=O)NC)cc1Oc1ccnc(NC(=O)c2ccc(CN3C[C@@H](C)N[C@@H](C)C3)cc2)c1 [Example 30, 5-((2-(4-(((3S,5R)-3,5-Dimethylpiperazin-1-yl)methyl)benzamide)pyridin-4-yl)oxy)-6-(2-ethoxyethoxy)-N-methyl-1H-indole-1-carboxamide]	–	–	566
CNC(=O)n1ccc2cc(Oc3ccnc(NC(=O)c4ccc(C5CCN(C(C)C)CC5)cc4)c3)c(OCCCOC)cc21 [Example 127]	–	–	226
CCOCCOc1cc2c(ccn2C(=O)NC)cc1Oc1ccnc(NC(=O)c2ccc(C3CCNCC3)cc2)c1 [Example 24, 6-(2-Ethoxyethoxy)-N-methyl-5-((2-(4-(piperidin-4-yl)benzamide)pyridin-4-yl)oxy)-1H-indole-1-carboxamide]	6.2	–	–
CNC(=O)n1ccc2cc(Oc3ccnc(NC(=O)c4ccc(CN5CC[C@H](O)C5)cc4)c3)c(OCCCOC)cc21 [Example 120]	–	–	457
CNC(=O)n1ccc2cc(Oc3ccnc(NC(=O)c4ccc(C5CCNCC5)cc4)c3)c(OC(C)C)cc21 [Example 17, 6-Isopropoxy-N-methyl-5-((2-(4-(piperidin-4-yl)benzamide)pyridin-4-yl)oxy)-1H-indole-1-carboxamide]	17.7	–	–
CNC(=O)n1ccc2cc(Oc3ccnc(NC(=O)c4ccc(CN5CCC[C@H]5CO)s4)c3)c(OCCOC)cc21 [Example 83]	–	–	310
CCOc1cc2c(ccn2C(=O)NC)cc1Oc1ccnc(NC(=O)c2ccc(C3CCNCC3)cc2)c1 [Example 15, 6-Ethoxy-N-methyl-5-((2-(4-(piperidin-4-yl)benzamide)pyridin-4-yl)oxy)-1H-indole-1-carboxamide]	9.7	–	–
CNC(=O)n1ccc2cc(Oc3ccnc(NC(=O)c4ccc(C5CCN(C)CC5)cc4)c3)c(OC(C)C)cc21 [Example 69]	17.5	–	–
CCOCCOc1cc2c(ccn2C(=O)NC)cc1Oc1ccnc(NC(=O)c2ccc(CN3CC[C@@H](O)C3)cc2)c1 [Example 106]	–	–	726

Continued, in another order:

IC50 ([1]; read-out: SNU-16 (IC50 (nM))) [nM]	Structure (SMILES)	IC50 [1, 3] [nM]	IC50 [2] [nM]
7.7	CCN1CCC(c2ccc(C(=O)Nc3cc(Oc4cc5ccn(C(=O)NC)c5cc4OCCCOC)ccn3)cc2)CC1 [Example 129]	–	–
6.9	CNC(=O)n1ccc2cc(Oc3ccnc(NC(=O)c4ccc(C5CN(C(C)C)C5)cc4)c3)c(OCCOC)cc21 [Example 88]	–	–
3.6	CCOCCOc1cc2c(ccn2C(=O)NC)cc1Oc1ccnc(NC(=O)c2ccc(C3CN(C[C@H](C)O)C3)cc2)c1 [Example 97]	–	–
5.8	CCOCCOc1cc2c(ccn2C(=O)NC)cc1Oc1ccnc(NC(=O)c2ccc(C3CCN(C(C)C)CC3)cc2)c1 [Example 110]	–	–
4.7	CCOCCOc1cc2c(ccn2C(=O)NC)cc1Oc1ccnc(NC(=O)c2ccc(C3CCN(C)CC3)cc2)c1 [Example 114]	–	–
6.4	CCOCCOc1cc2c(ccn2C(=O)NC)cc1Oc1ccnc(NC(=O)c2ccc(C3CN(C[C@@H](C)O)C3)cc2)c1 [Example 96]	–	–
6.7	CCOCCOc1cc2c(ccn2C(=O)NC)cc1Oc1ccnc(NC(=O)c2ccc(C3CCN(CC(C)(C)O)CC3)cc2)c1 [Example 109]	–	–
8.9	CCN1CC(c2ccc(C(=O)Nc3cc(Oc4cc5ccn(C(=O)NC)c5cc4OCCCOC)ccn3)cc2)C1 [Example 124]	–	–
3.9	CNC(=O)n1ccc2cc(Oc3ccnc(NC(=O)c4ccc(C5CN(C)C5)cc4)c3)c(OCCOC)cc21 [Example 87]	–	–
4.6	CNC(=O)n1ccc2cc(Oc3ccnc(NC(=O)c4ccc(C5CN(CC(C)(C)O)C5)cc4)c3)c(OCCOC)cc21 [Example 79]	–	–
5.7	CCOCCOc1cc2c(ccn2C(=O)NC)cc1Oc1ccnc(NC(=O)c2ccc(C3CCN(CC)CC3)cc2)c1 [Example 113]	–	–
8.5	CNC(=O)n1ccc2cc(Oc3ccnc(NC(=O)c4ccc(C5CN(C(C)C)C5)cc4)c3)c(OCCCOC)cc21 [Example 123]	–	–
10	CCOc1cc2c(ccn2C(=O)NC)cc1Oc1ccnc(NC(=O)c2ccc(C3CCN(CC(C)(C)O)CC3)cc2)c1 [Example 58]	–	–
5.1	CCOCCOc1cc2c(ccn2C(=O)NC)cc1Oc1ccnc(NC(=O)c2ccc(C3CN(CC(C)(C)O)C3)cc2)c1 [Example 95]	–	–
7.5	CNC(=O)n1ccc2cc(Oc3ccnc(NC(=O)c4ccc(C5CCNCC5)cc4)c3)c(OCCOC)cc21 [Example 20, 6-(2-Methoxyethoxy)-N-methyl-5-((2-(4-(piperidin-4-yl)benzamide)pyridin-4-yl)oxy)-1H-indole-1-carboxamide]	–	–
6.4	CNC(=O)n1ccc2cc(Oc3ccnc(NC(=O)c4ccc(C5CCN(CCO)CC5)cc4)c3)c(OCCCOC)cc21 [Example 128]	–	–

From patent publication US8933099B2, “Monocyclic pyridine derivative” (Eisai R&D Management Co., Ltd., priority 2013, dated 2015)
